The values below come from article PMC6105497 (The FEBS journal, 2018).

The Kd is the concentration at which binding is half-saturated. High values mean lower affinity, low ones higher affinity.

Structures are written as SMILES.

One assay has as its target vcFabH1 (Vibrio cholerae serotype O1, UniProt Q9KQH5). The experiment in a line: biochemical. Type of assay: biochemical. The note with it: for Reaction rate relative to that of acetyl-CoA: pH 7.5.
For the next assay, the target named is vcFabH2 (C113A) (Vibrio cholerae serotype O1, UniProt Q9KLJ3, C113A). Type of assay: binding. To be noted: for Binding sites/molecule (Stoichiometry): pH 7.5.
The target in a further assay is vcFabH2 (C356A) (Vibrio cholerae serotype O1, UniProt Q9KLJ3, C356A). Type of assay: binding.
A further assay deals with vcFabH2 (Vibrio cholerae serotype O1, UniProt Q9KLJ3). The experiment in a line: biochemical. Type of assay: biochemical.

As for `CC(=O)SCCNC(=O)CCNC(=O)[C@H](O)C(C)(C)COP(=O)(O)OP(=O)(O)OC[C@H]1O[C@@H](n2cnc3c(N)ncnc32)[C@H](O)[C@@H]1OP(=O)(O)O` [Acetyl-CoA], at vcFabH1, the Hill coefficient n amounted to 1.6±0.2, the Kd was determined as 21.2 ± 2.9 µM and the “Vmax (maximum activity)” value is 14.0±1.1 μmol∙min^−1∙μmol^−1. In addition, on vcFabH2 (C113A), the ΔH was -14.49 kcal/mol, the ΔS is listed as −34.70 cal∙mol^−1∙K^−1 and the “Binding sites/molecule (Stoichiometry)” value was 0.69 ± 0.05.

Turning to `CCCC(=O)SCCNC(=O)CCNC(=O)[C@H](O)C(C)(C)COP(=O)(O)OP(=O)(O)OC[C@H]1O[C@@H](n2cnc3c(N)ncnc32)[C@H](O)[C@@H]1OP(=O)(O)O` [Butyryl-CoA], at vcFabH2 (C113A), the ΔH was -8.259 kcal/mol, the ΔS is listed as −12.00 cal∙mol^−1∙K^−1 and the “Binding sites/molecule (Stoichiometry)” value worked out at 0.87 ± 0.03.

For `CCCCCCCCCC(=O)SCCNC(=O)CCNC(=O)[C@H](O)C(C)(C)COP(=O)(O)OP(=O)(O)OC[C@H]1O[C@@H](n2cnc3c(N)ncnc32)[C@H](O)[C@@H]1OP(=O)(O)O` [Decanoyl-CoA], on vcFabH2 (C356A), the “Binding sites/molecule (Stoichiometry)” value is recorded as 1, the ΔH is -11.68 kcal/mol and the ΔS is on record as −25.30 cal∙mol^−1∙K^−1. Also, at vcFabH2 (C113A), the ΔH was -7.457 kcal/mol, the ΔS is given as −4.24 cal∙mol^−1∙K^−1 and the “Binding sites/molecule (Stoichiometry)” value is given as 1.36 ± 0.01.

Regarding `CCCCCC(=O)SCCNC(=O)CCNC(=O)[C@H](O)C(C)(C)COP(=O)(O)OP(=O)(O)OC[C@H]1O[C@@H](n2cnc3c(N)ncnc32)[C@H](O)[C@@H]1OP(=O)(O)O` [Hexanoyl-CoA], the “Reaction rate relative to that of acetyl-CoA” value (“Reaction rate relative to that” for short) at vcFabH1 was “lower than 20%”. Further, at vcFabH2 (C356A), the “Binding sites/molecule (Stoichiometry)” value was 1, the ΔH was -1.847 kcal/mol and the ΔS amounted to 8.50 cal∙mol^−1∙K^−1. Further, on vcFabH2 (C113A), the ΔH was -11.78 kcal/mol, the ΔS is on record as −22.10 cal∙mol^−1∙K^−1 and the “Binding sites/molecule (Stoichiometry)” value stood at 0.878 ± 0.004.

As to `CC(C)C(=O)SCCNC(=O)CCNC(=O)[C@H](O)C(C)(C)COP(=O)(O)OP(=O)(O)OC[C@H]1O[C@@H](n2cnc3c(N)ncnc32)[C@H](O)[C@@H]1OP(=O)(O)O` [Isobutyryl-CoA], at vcFabH2 (C113A), the ΔH was -8.57 kcal/mol, the ΔS is reported as −13.00 cal∙mol^−1∙K^−1 and the “Binding sites/molecule (Stoichiometry)” value was found to be 0.77 ± 0.18.

In the case of `CC(C)CC(=O)SCCNC(=O)CCNC(=O)[C@H](O)C(C)(C)COP(=O)(O)OP(=O)(O)OC[C@H]1O[C@@H](n2cnc3c(N)ncnc32)[C@H](O)[C@@H]1OP(=O)(O)O` [Isovaleryl-CoA], the “Reaction rate relative to that” value at vcFabH1 is given as “lower than 20%”. On vcFabH2 (C113A), the ΔH was -9.347 kcal/mol, the ΔS was −16.20 cal∙mol^−1∙K^−1 and the “Binding sites/molecule (Stoichiometry)” value was found to be 0.74 ± 0.03.

On to `CCCCCCCCCCCC(=O)SCCNC(=O)CCNC(=O)[C@H](O)C(C)(C)COP(=O)(O)OP(=O)(O)OC[C@H]1O[C@@H](n2cnc3c(N)ncnc32)[C@H](O)[C@@H]1OP(=O)(O)O` [Lauroyl-CoA], for which, on vcFabH2 (C113A), the ΔH was -6.563 kcal/mol, the ΔS is on record as −4.60 cal∙mol^−1∙K^−1 and the “Binding sites/molecule (Stoichiometry)” value was 1.38 ± 0.02.

With `CCCCCCCC(=O)SCCNC(=O)CCNC(=O)[C@H](O)C(C)(C)COP(=O)(O)OP(=O)(O)OC[C@H]1O[C@@H](n2cnc3c(N)ncnc32)[C@H](O)[C@@H]1OP(=O)(O)O` [Octanoyl-CoA], at vcFabH2, the Hill coefficient n is given as 1.8±0.2, binding was put at a Kd of 24.2 ± 2.2 µM and the “Vmax (maximum activity)” value worked out at 18.0±1.1 μmol∙min^−1∙μmol^−1. Also, the “Reaction rate relative to that” value at vcFabH1 is recorded as “lower than 20%”. Besides, at vcFabH2 (C356A), the “Binding sites/molecule (Stoichiometry)” value is 1, the ΔH is -3.414 kcal/mol and the ΔS is listed as 4.43 cal∙mol^−1∙K^−1. Moreover, on vcFabH2 (C113A), the ΔH was -12.67 kcal/mol, the ΔS was −22.30 cal∙mol^−1∙K^−1 and the “Binding sites/molecule (Stoichiometry)” value is reported as 0.90 ± 0.01.
